In the supplement of paper PMC11061612:

Experiments:
Test in all cases: combination Emax (second highest fraction inhibited in the dose matrix, 72 h); higher = more inhibition; extreme values may be limits of the assay
NCI-H2722 (Mesothelioma) = system: NCI-H2722 (Mesothelioma)
Procedure, shortened: (§1)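 After 24 hours at 37°C and 5% CO2 in 1536-well plates, cells in DMEM/F12 or RPMI plus 10% FBS received two-drug dose matrices for 72 hours. Viability came from CellTiter-Glo 2.0 luminescence and was scaled as inhibition, anchored at 0 by vehicle wells and at 1 by blank wells. Combination Emax is taken as the second-highest inhibition in the matrix, and Bliss excess as the observed combination effect less EA + EB − EA·EB, with EA and EB the single-agent effects.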

[1] = system: KYAE-1 (Esophageal Adenocarcinoma)
Procedure, shortened: as §1

[2] = system: LS-123 (Colorectal Carcinoma)
Procedure, shortened: as §1

[3] = system: Hs-746T (Gastric Carcinoma)
Procedure, shortened: as §1

[4] = system: NCI-H524 (Small Cell Lung Carcinoma)
Procedure, shortened: as §1

[5] = system: ALL-PO (B-Lymphoblastic Leukemia)
Procedure, shortened: as §1

[6] = system: SW1710 (Bladder Carcinoma)
Procedure, shortened: as §1

[7] = system: BFTC-909 (Kidney Carcinoma)
Procedure, shortened: as §1

[8] = system: HeLa (Cervical Carcinoma)
Procedure, shortened: as §1

[9] = system: WSU-NHL (B-Cell Non-Hodgkin's Lymphoma)
Procedure, shortened: as §1

[10] = system: SAS (Oral Cavity Carcinoma)
Procedure, shortened: as §1

[11] = system: LNZTA3WT4 (Low Grade Glioma)
Procedure, shortened: as §1

LOXIMVI (Melanoma) = system: LOXIMVI (Melanoma)
Procedure, shortened: as §1

[12] = system: SNU-449 (Hepatocellular Carcinoma)
Procedure, shortened: as §1

[13] = system: L-428 (Hodgkin's Lymphoma)
Procedure, shortened: as §1

GAMG (Glioblastoma) = system: GAMG (Glioblastoma)
Procedure, shortened: as §1

[14] = system: SNU-16 (Gastric Carcinoma)
Procedure, shortened: as §1

[15] = system: LCLC-97TM1 (Non-Small Cell Lung Carcinoma)
Procedure, shortened: as §1

EW-11 (Ewing's Sarcoma) = system: EW-11 (Ewing's Sarcoma)
Procedure, shortened: as §1

[16] = system: OV-56 (Ovarian Carcinoma)
Procedure, shortened: as §1

Row | Structure (SMILES) | combination Emax (NCI-H2722 (Mesothelioma)) | combination Emax [1] | combination Emax [2] | combination Emax [3] | combination Emax [4] | combination Emax [5] | combination Emax [6] | combination Emax [7] | combination Emax [8] | combination Emax [9] | combination Emax [10] | combination Emax [11] | combination Emax (LOXIMVI (Melanoma)) | combination Emax [12] | combination Emax [13] | combination Emax (GAMG (Glioblastoma)) | combination Emax [14] | combination Emax [15] | combination Emax (EW-11 (Ewing's Sarcoma)) | combination Emax [16]
1 | COc1nnc2ccc(N3CCC(c4ccc(OCCN5CCN(C)C(=O)[C@H]5C)cc4)CC3)nn12 [AZD5153] + Cc1c2c(nn1C)CSCc1cc(n(C)n1)CSc1cc(c3ccccc3c1)OCCCc1c(C(=O)O)n(C)c3c-2c(Cl)ccc13 [AZD5991] (first compound max 1 µM, 7x7, partner max 1 µM) | 0.508 | 0.0912 | 0.406 | 0.495 | 0.934 | 1 | 0.355 | 0.535 | 0.799 | 1 | 0.823 | 0.441 | 0.975 | 0.292 | 0.833 | 0.425 | 1 | 0.733 | 0.945 | 0.351
2 | COc1nnc2ccc(N3CCC(c4ccc(OCCN5CCN(C)C(=O)[C@H]5C)cc4)CC3)nn12 [AZD5153] + Cn1cnc2c(F)c(Nc3ccc(Br)cc3Cl)c(C(=O)NOCCO)cc21 [Selumetinib] (first compound max 1 µM, 7x7, partner max 10 µM) | 0.516 | 0.116 | 0.794 | 0.731 | 0.575 | 0.88 | 0.441 | 0.488 | 0.411 | 0.954 | 0.86 | 0.383 | 0.877 | 0.243 | 0.784 | 0.527 | 0.902 | 0.848 | 0.424 | 0.336
3 | Cc1c2c(nn1C)CSCc1cc(n(C)n1)CSc1cc(c3ccccc3c1)OCCCc1c(C(=O)O)n(C)c3c-2c(Cl)ccc13 [AZD5991] + C1CN(CCC1(C(=O)N[C@@H](CCO)C2=CC=C(C=C2)Cl)N)C3=NC=NC4=C3C=CN4 [Capivasertib] (first compound max 1 µM, 7x7, partner max 3 µM) | 0.173 | 0.334 | 0.281 | 0.337 | 0.452 | 1 | 0.256 | 0.446 | 0.671 | 0.9 | 0.189 | 0.237 | 0.313 | 0.182 | 0.155 | 0.477 | 0.996 | 0.32 | 0.897 | 0.169
4 | Cc1c2c(nn1C)CSCc1cc(n(C)n1)CSc1cc(c3ccccc3c1)OCCCc1c(C(=O)O)n(C)c3c-2c(Cl)ccc13 [AZD5991] + C=CCn1c(=O)c2cnc(Nc3ccc(N4CCN(C)CC4)cc3)nc2n1-c1cccc(C(C)(C)O)n1 [AZD1775] (first compound max 1 µM, partner max 1 µM) | 0.397 | 0.668 | 0.66 | 0.605 | 0.816 | 1 | 0.344 | 0.944 | 0.841 | 0.954 | 0.625 | 0.823 | 0.624 | 0.302 | 0.82 | 0.522 | 1 | 0.948 | 0.863 | 0.244
5 | Cc1c2c(nn1C)CSCc1cc(n(C)n1)CSc1cc(c3ccccc3c1)OCCCc1c(C(=O)O)n(C)c3c-2c(Cl)ccc13 [AZD5991] + CC1(C)CCC(CN2CCN(c3ccc(C(=O)NS(=O)(=O)c4ccc(NCC5CCOCC5)c([N+](=O)[O-])c4)c(Oc4cnc5[nH]ccc5c4)c3)CC2)=C(c2ccc(Cl)cc2)C1 [Venetoclax] (first compound max 1 µM, 7x7, partner max 1 µM) | 0.122 | 0.225 | 0.142 | 0.203 | 0.629 | 1 | 0.168 | 0.239 | 0.794 | 0.975 | 0.184 | 0.203 | 0.229 | 0.23 | 0.158 | 0.315 | 0.994 | 0.138 | 0.975 | 0.173
6 | Cc1c2c(nn1C)CSCc1cc(n(C)n1)CSc1cc(c3ccccc3c1)OCCCc1c(C(=O)O)n(C)c3c-2c(Cl)ccc13 [AZD5991] + CCN(CCO)CCCOc1ccc2c(Nc3cc(CC(=O)Nc4cccc(F)c4)[nH]n3)ncnc2c1 [AZD2811] (first compound max 1 µM, 7x7, partner max 1 µM) | 0.29 | 0.296 | 0.229 | 0.257 | 1 | 1 | 0.228 | 0.438 | 0.763 | 0.92 | 0.268 | 0.256 | 0.339 | 0.282 | 0.31 | 0.534 | 0.996 | 0.722 | 0.872 | 0.2
